How the values were obtained:
Assay type in all cases: cell-based, human
[1] = test system: HeLa cells; assay: HeLa cell proliferation test using Trametinib and MK-2206; settings: drug from day 1 for 5 days
Method: (§1) This aqueous solution was sterilized at 121° C. for 20 min in an autoclave.
(§2) Each plate was cultured by being stood still in a CO2 incubator (37° C., 5% CO2). […] The anticancer drugs used were Trametinib (manufactured by Santa Cruz, MEK inhibitor) and MK-2206 (manufactured by Santa Cruz, Akt inhibitor). To the culture medium on day 6 was added an ATP reagent (150 μL) (CellTiter-Glo (registered trade mark) Luminescent Cell Viability Assay, manufactured by Promega) to give a suspension, which was stood for about 10 min at room temperature, and the luminescence intensity (RLU value) was measured by FlexStation3 (manufactured by Molecular Devices), and the number of viable cells was measured by subtracting the luminescence value of the medium alone.

[2] = test system: A549 cells; assay: A549 cell proliferation test using Trametinib and MK-2206; settings: drug from day 1 for 5 days
Method: This aqueous solution was sterilized at 121° C. for 20 min is in an autoclave.
as §2

[3] = test system: HeLa cells; assay: Cell proliferation test using various anticancer drugs; settings: DAG 0.030% medium; for cell density: HeLa cells 5 days later
Method: This aqueous solution was sterilized at 121° C. for 20 min in an autoclave. […] The anticancer drug used was Adriamycin (manufactured by WAKO), Paclitaxel (manufactured by WAKO) or Mitomycin C (manufactured by WAKO).
Successively, this plate was cultured by being stood still in a CO2 incubator (37° C., 5% CO2) for 7 days. After culturing for 3, 5, 7 days, to the culture medium was added a WST-8 solution (manufactured by DOJINDO Laboratories, 20 μL), and the mixture was incubated at 37° C. for 100 min. The absorbance at 450 nm was measured by an absorbance spectrometer (manufactured by Molecular Devices, SPECTRA MAX 190), and the number of viable cells was measured by subtracting the absorbance of the medium alone. The culture medium containing the cells after 5 days of culture was stirred with a pipette and the obtained stirred solution (20 μL) was mixed with Trypan Blue stain 0.4% (manufactured by Invitrogen, 20 μL) and the cell density was measured under a microscope.

[4] = test system: HeLa cells; assay: Comparison with single layer culture method in cell proliferation test using anticancer drug; settings: day 4
Method: as §1
Each plate was cultured by being stood still in a CO2 incubator (37° C., 5% CO2). […] The anticancer drug used was Adriamycin (manufactured by WAKO), Paclitaxel (manufactured by WAKO) or Mitomycin C (manufactured by WAKO). To the culture medium on day 4 was added an ATP reagent (150 μL) (CellTiter-Glo (registered trade mark) Luminescent Cell Viability Assay, manufactured by Promega) to give a suspension, which was stood for about 10 min at room temperature, and the luminescence intensity (RLU value) was measured by FlexStation3 (manufactured by Molecular Devices), and the number of viable cells was measured by subtracting the luminescence value of the medium alone. For WST-8 measurement, a WST-8 solution (manufactured by DOJINDO Laboratories, 15 μL) was added, the mixture was incubated at 37° C. for 100 min, the absorbance at 450 nm was measured by an absorbance spectrometer (manufactured by Molecular Devices, SPECTRA MAX 190), and the number of viable cells was measured by subtracting the absorbance of the medium alone.

[5] = 0.03 μM, deacylated gellan gum addition group (0.015%)
[6] = 0.03 μM, single layer culture group
[7] = 0.3 μM, deacylated gellan gum addition group (0.015%)
[8] = 0.3 μM, single layer culture group
[9] = 3 μM, deacylated gellan gum addition group (0.015%)
[10] = 3 μM, single layer culture group
[11] = 30 μM, deacylated gellan gum addition group (0.015%)
[12] = 30 μM, single layer culture group
[13] = 0.005 μM, deacylated gellan gum addition group (0.015%)
[14] = 0.005 μM, single layer culture group
[15] = 0.05 μM, deacylated gellan gum addition group (0.015%)
[16] = 0.05 μM, single layer culture group
[17] = 0.5 μM, deacylated gellan gum addition group (0.015%)
[18] = 0.5 μM, single layer culture group
[19] = 0.001 μM, single layer culture group
[20] = 0.003 μM, deacylated gellan gum addition group (0.015%)
[21] = 0.003 μM, single layer culture group
[22] = 0.01 μM, deacylated gellan gum addition group (0.015%)
[23] = 0.01 μM, single layer culture group
[24] = 0.001 μM, deacylated gellan gum addition group (0.015%)
[25] = 0.1 μM, deacylated gellan gum addition group (0.015%)
[26] = 0.1 μM, single layer culture group
[27] = 1 μM, deacylated gellan gum addition group (0.015%)
[28] = 1 μM, single layer culture group

For `NC1(c2ccc(-c3nc4ccn5c(=O)[nH]nc5c4cc3-c3ccccc3)cc2)CCC1` [MK-2206], the “% Control of RLU value (ATP)” value [1, 5] was 57 % Control, the “% Control of RLU value (ATP)” value [1, 6] was 93 % Control and the “% Control of RLU value (ATP)” value [1, 7] was 21 % Control. For the same compound, the “% Control of RLU value (ATP)” value [1, 8] was 84 % Control, the “% Control of RLU value (ATP)” value [1, 9] was 21 % Control and the “% Control of RLU value (ATP)” value [1, 10] was 69 % Control. The “% Control of RLU value (ATP)” value [1, 11] was 0 % Control, the “% Control of RLU value (ATP)” value [1, 12] was 0 % Control and the “% Control of RLU value (ATP)” value [2, 5] was 84 % Control. For the same compound, the “% Control of RLU value (ATP)” value [2, 6] was 93 % Control, the “% Control of RLU value (ATP)” value [2, 7] was 45 % Control and the “% Control of RLU value (ATP)” value [2, 8] was 79 % Control. For the same compound, the “% Control of RLU value (ATP)” value [2, 9] was 21 % Control, the “% Control of RLU value (ATP)” value [2, 10] was 53 % Control and the “% Control of RLU value (ATP)” value [2, 11] was 0 % Control. For the same compound, the “% Control of RLU value (ATP)” value [2, 12] was 0 % Control.
In the case of `CO[C@@]12[C@H](COC(N)=O)C3=C(C(=O)C(C)=C(N)C3=O)N1C[C@@H]1N[C@@H]12` [Mitomycin C], the cell density ([3]; 0.01 μM) is reported as 1.0 10^4 cells/mL, the “cell number (absorbance at 450 nm, WST-8)” value (shortened to “cell number”) ([3]; 0.01 μM, culture day 3) is reported as 0.089 and the “cell number” value ([3]; 0.01 μM, culture day 5) is reported as 0.016. For the same compound, the “cell number” value ([3]; 0.01 μM, culture day 7) was under 0, the cell density ([3]; 0.1 μM) was 0.4 10^4 cells/mL and the “cell number” value ([3]; 0.1 μM, culture day 3) was 0.032. For the same compound, the “cell number” value ([3]; 0.1 μM, culture day 5) was under 0, the “cell number” value ([3]; 0.1 μM, culture day 7) was under 0 and the cell density ([3]; 1 μM) was 0.1 10^4 cells/mL. The “cell number” value ([3]; 1 μM, culture day 3) was under 0, the “cell number” value ([3]; 1 μM, culture day 5) was under 0 and the “cell number” value ([3]; 1 μM, culture day 7) was under 0. The “% Control of RLU value (ATP)” value [4, 13] was 83 % Control, the “% Control of absorbance at 450 nm (WST-8)” value (shortened to “% Control of absorbance”) [4, 13] was 94 % Control and the “% Control of RLU value (ATP)” value [4, 14] was 99 % Control. For the same compound, the “% Control of absorbance” value [4, 14] was 101 % Control, the “% Control of RLU value (ATP)” value [4, 15] was 48 % Control and the “% Control of absorbance” value [4, 15] was 37 % Control. For the same compound, the “% Control of RLU value (ATP)” value [4, 16] was 89 % Control, the “% Control of absorbance” value [4, 16] was 83 % Control and the “% Control of RLU value (ATP)” value [4, 17] was 29 % Control. For the same compound, the “% Control of absorbance” value [4, 17] was 12 % Control, the “% Control of RLU value (ATP)” value [4, 18] was 86 % Control and the “% Control of absorbance” value [4, 18] was 71 % Control.
For `CC(=O)O[C@H]1C(=O)[C@@]2(C)[C@H]([C@H](OC(=O)c3ccccc3)[C@]3(O)C[C@H](OC(=O)[C@H](O)[C@@H](NC(=O)c4ccccc4)c4ccccc4)C(C)=C1C3(C)C)[C@]1(OC(C)=O)CO[C@@H]1C[C@@H]2O` [Paclitaxel], the cell density ([3]; 0.1 μM) was 0.9 10^4 cells/mL, the cell density ([3]; 1 μM) was 0.2 10^4 cells/mL and the “% Control of RLU value (ATP)” value [1, 19] was 89 % Control. For the same compound, the “% Control of RLU value (ATP)” value [1, 20] was 46 % Control, the “% Control of RLU value (ATP)” value [1, 21] was 15 % Control and the “% Control of RLU value (ATP)” value [1, 22] was 5 % Control. The “% Control of RLU value (ATP)” value [1, 23] was 2 % Control, the “% Control of RLU value (ATP)” value [2, 24] was 93 % Control and the “% Control of RLU value (ATP)” value [2, 19] was 81 % Control. The “% Control of RLU value (ATP)” value [2, 20] was 52 % Control, the “% Control of RLU value (ATP)” value [2, 21] was 31 % Control and the “% Control of RLU value (ATP)” value [2, 22] was 32 % Control. The “% Control of RLU value (ATP)” value [2, 23] was 16 % Control.
`CC(=O)Nc1cccc(-n2c(=O)n(C3CC3)c(=O)c3c(Nc4ccc(I)cc4F)n(C)c(=O)c(C)c32)c1` [Trametinib] was tested, and the “% Control of RLU value (ATP)” value [1, 24] was 73 % Control, the “% Control of RLU value (ATP)” value [1, 19] was 102 % Control and the “% Control of RLU value (ATP)” value [1, 22] was 12 % Control. For the same compound, the “% Control of RLU value (ATP)” value [1, 23] was 93 % Control, the “% Control of RLU value (ATP)” value [1, 25] was 1 % Control and the “% Control of RLU value (ATP)” value [1, 26] was 20 % Control. For the same compound, the “% Control of RLU value (ATP)” value [1, 27] was 1 % Control, the “% Control of RLU value (ATP)” value [1, 28] was 3 % Control and the “% Control of RLU value (ATP)” value [2, 24] was 72 % Control. For the same compound, the “% Control of RLU value (ATP)” value [2, 19] was 71 % Control, the “% Control of RLU value (ATP)” value [2, 22] was 35 % Control and the “% Control of RLU value (ATP)” value [2, 23] was 37 % Control. The “% Control of RLU value (ATP)” value [2, 25] was 2 % Control, the “% Control of RLU value (ATP)” value [2, 26] was 5 % Control and the “% Control of RLU value (ATP)” value [2, 27] was 0 % Control. The “% Control of RLU value (ATP)” value [2, 28] was 1 % Control.

From patent publication US11371013B2, “Culture medium composition and method of culturing cell or tissue using thereof” (Nissan Chemical Industries, Ltd., priority 2012, dated 2022)
